Results on 7 molecules are retold here after PubChem BioAssay (NCI).

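Interpolation was linear, between the two tested concentrations surrounding the appropriate level; five concentrations were tested over 48 hours in 96-well plates. Definition used: TGI = concentration required for complete inhibition of growth.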

Among the test systems are COLO 205 colon; CCRF-CEM leukemia; SN12C renal; T-47D breast; NCI-H23 lung; SK-MEL-5 melanoma; SR leukemia; DU-145 prostate; ACHN renal; UO-31 renal; NCI/ADR-RES ovarian; SK-MEL-28 melanoma; MALME-3M melanoma; MDA-N; IGROV1 ovarian; OVCAR-8 ovarian; RXF 393 renal; RPMI-8226 leukemia.
Holding throughout (assay): NCI-60 cell line screen, 48 h

Regarding `C#CC1NC(=O)C1N(CC)CC` (stereo unspecified), the TGI in the experiment with COLO 205 colon, with CCRF-CEM leukemia, with SN12C renal, with T-47D breast, with NCI-H23 lung and in the experiment on SK-MEL-5 melanoma was more than 100 µM each time. For the same molecule, the TGI in the experiment on SR leukemia, in the experiment on DU-145 prostate, with ACHN renal, in the experiment with UO-31 renal, in the experiment with NCI/ADR-RES ovarian and in the experiment with SK-MEL-28 melanoma was more than 100 µM each time. Also, the TGI in the experiment with MALME-3M melanoma, in the experiment on MDA-N, with IGROV1 ovarian, in the experiment with OVCAR-8 ovarian, with RXF 393 renal and in the experiment on RPMI-8226 leukemia was more than 100 µM throughout.

Take `Cc1ccc(N2C(N)=C(C#N)C(C#N)(C#N)C2c2ccccc2)cc1` (stereo unspecified): the TGI with COLO 205 colon is 24 µM; in the experiment on CCRF-CEM leukemia, 7.33 µM; with SN12C renal, 30.9 µM; in the experiment with T-47D breast, 21.4 µM; in the experiment with NCI-H23 lung it was 38.1 µM; in the experiment with SK-MEL-5 melanoma, 20.9 µM. The TGI in the experiment on SR leukemia was determined as 33.7 µM; in the experiment with DU-145 prostate, 28.2 µM; in the experiment on ACHN renal it was 28.2 µM; with UO-31 renal, 32 µM; in the experiment on NCI/ADR-RES ovarian, 36.1 µM; in the experiment on SK-MEL-28 melanoma, 22.3 µM. The TGI came out at 27.8 µM in the experiment on MALME-3M melanoma; 12 µM in the experiment on MDA-N; 20.2 µM with IGROV1 ovarian; 40.2 µM in the experiment on OVCAR-8 ovarian; 25.3 µM in the experiment on RXF 393 renal; 32.1 µM in the experiment with RPMI-8226 leukemia.

Consider `O=C1/C(=C/c2ccc(Cl)cc2)CSC/C1=C\c1ccc(Cl)cc1`, for which the TGI stood at 7.26 µM in the experiment on COLO 205 colon; 63.9 µM in the experiment on CCRF-CEM leukemia; 9.52 µM in the experiment with SN12C renal; 23.2 µM in the experiment on T-47D breast; 11.8 µM with NCI-H23 lung; 10.6 µM in the experiment on SK-MEL-5 melanoma. Besides, the TGI in the experiment with SR leukemia was 8.15 µM; with DU-145 prostate, 24.8 µM; with ACHN renal, 12.6 µM; in the experiment on UO-31 renal, 3.93 µM; in the experiment with NCI/ADR-RES ovarian, more than 100 µM; in the experiment on SK-MEL-28 melanoma it was 5.51 µM. Besides, the TGI turned out to be 36.9 µM in the experiment on MALME-3M melanoma; 10.6 µM in the experiment on MDA-N; 3.65 µM with IGROV1 ovarian; 13.8 µM in the experiment with OVCAR-8 ovarian; 3.36 µM with RXF 393 renal; 5 µM with RPMI-8226 leukemia.

As to `O=c1oc2ccc3ccccc3c2cc1-c1nc2ccc([N+](=O)[O-])cc2o1`, the TGI in the experiment on COLO 205 colon was more than 100 µM; in the experiment with CCRF-CEM leukemia, more than 100 µM; in the experiment on SN12C renal it was more than 100 µM; in the experiment on T-47D breast, more than 100 µM; in the experiment on NCI-H23 lung, more than 86.9 µM; with SK-MEL-5 melanoma it was more than 100 µM. For the same molecule, the TGI in the experiment with SR leukemia is more than 100 µM; in the experiment on DU-145 prostate, more than 100 µM; with ACHN renal it was more than 24.2 µM; in the experiment on UO-31 renal, more than 92.1 µM; in the experiment on NCI/ADR-RES ovarian it was more than 100 µM; in the experiment on SK-MEL-28 melanoma, more than 100 µM. Further, the TGI was more than 100 µM in the experiment on MALME-3M melanoma; more than 100 µM in the experiment on MDA-N; more than 100 µM with IGROV1 ovarian; more than 100 µM in the experiment with OVCAR-8 ovarian; 19.1 µM in the experiment on RXF 393 renal; more than 100 µM in the experiment with RPMI-8226 leukemia.

As to `O=C1CC2SC(COCc3ccccc3)(CCN2Cc2ccccc2)C1` (stereo unspecified), the TGI in the experiment on COLO 205 colon is more than 100 µM; with CCRF-CEM leukemia, more than 100 µM; in the experiment with SN12C renal, more than 100 µM; with T-47D breast, more than 100 µM; in the experiment with NCI-H23 lung, more than 100 µM; in the experiment with SK-MEL-5 melanoma, 34.8 µM. The TGI with SR leukemia, in the experiment with DU-145 prostate, in the experiment with ACHN renal, with UO-31 renal, with NCI/ADR-RES ovarian and in the experiment on SK-MEL-28 melanoma was more than 100 µM in each case. The TGI is more than 100 µM with MALME-3M melanoma; more than 100 µM in the experiment on MDA-N; more than 100 µM with IGROV1 ovarian; more than 100 µM with OVCAR-8 ovarian; more than 100 µM with RXF 393 renal; 93.4 µM in the experiment on RPMI-8226 leukemia.

As for `CC[C@H](C)[C@H](NC(=O)[C@@]1(O)[C@H](O)[C@]2(CC)C=CCN3CC[C@@]4(c5cc(Br)c(OC)cc5N(C)[C@@H]14)[C@@H]32)C(=O)OC`, the TGI was 29.2 µM with COLO 205 colon; 67.3 µM in the experiment with CCRF-CEM leukemia; more than 100 µM in the experiment on SN12C renal; more than 100 µM in the experiment on T-47D breast; more than 100 µM in the experiment with NCI-H23 lung; 87.4 µM in the experiment with SK-MEL-5 melanoma. The TGI with SR leukemia was more than 100 µM; in the experiment with DU-145 prostate, more than 100 µM; in the experiment on ACHN renal it was more than 100 µM; in the experiment on UO-31 renal, more than 100 µM; with NCI/ADR-RES ovarian, more than 100 µM; in the experiment with SK-MEL-28 melanoma, 38.7 µM. The TGI is 83.7 µM in the experiment with MALME-3M melanoma; more than 100 µM in the experiment on MDA-N; more than 100 µM with IGROV1 ovarian; more than 100 µM in the experiment with OVCAR-8 ovarian; more than 100 µM with RXF 393 renal; 34.9 µM in the experiment with RPMI-8226 leukemia.

For the molecule `Cc1csc(NNC(=O)Nc2ccccc2)n1`, the TGI in the experiment on COLO 205 colon, in the experiment on CCRF-CEM leukemia, with SN12C renal, in the experiment on T-47D breast, in the experiment on NCI-H23 lung and with SK-MEL-5 melanoma was more than 100 µM in each case. The TGI in the experiment with SR leukemia, with DU-145 prostate, in the experiment on ACHN renal, in the experiment on UO-31 renal, in the experiment on NCI/ADR-RES ovarian and in the experiment on SK-MEL-28 melanoma was more than 100 µM each time. The TGI in the experiment on MALME-3M melanoma, in the experiment on MDA-N, in the experiment on IGROV1 ovarian, in the experiment on OVCAR-8 ovarian, in the experiment with RXF 393 renal and in the experiment with RPMI-8226 leukemia was more than 100 µM in each case.
